# Measured values: US4965280A, “Antifungal carbinols” (E. I. Du Pont de Nemours and Company, priority 1989, dated 1990)
# What was measured:
# Experiment in all cases: Test E
# [1] = tested on: ITALN. RYEGRASS; assay type: in vivo, Lolium multiflorum
# [2] = tested on: JET RAPE; assay type: in vivo, Brassica napus cv. Jet Neuf
# [3] = tested on: ANN. BLUEGRASS; assay type: in vivo, PO annua
# [4] = tested on: CTCHWD BEDSTRAW; assay type: in vivo, Galium aparine
# [5] = tested on: KOCHIA; assay type: in vivo, Kochia scoparia
# [6] = tested on: BONANZA BARLEY; assay type: in vivo, Hordeum vulgare cv. Bonanza
# [7] = tested on: LAMBSQUARTER; assay type: in vivo, Chenopodium album
# [8] = tested on: PARK WHEAT; assay type: in vivo, Triticum aestivum cv. Park
smiles,measurement,setting,value
"C=C(c1ccc(F)cc1)C(O)(Cn1cncn1)c1ccc(F)cc1F (stereo not shown) [Example 4, 2-(2,4-Difluorophenyl)-3-(4-fluorophenyl)-1-(1H-1,2,4-triazol-1-yl)-3-buten-2-ol]",plant response,[1]; POSTEMERGENCE 0064 GM/HA,0%
same,plant response,[1]; POSTEMERGENCE 0125 GM/HA,0%
same,plant response,[1]; POSTEMERGENCE 0250 GM/HA,30%
same,plant response,[1]; POSTEMERGENCE 0500 GM/HA,80%
same,plant response,[1]; PREEMERGENCE 0500 GM/HA,70%
same,plant response,[2]; POSTEMERGENCE 0064 GM/HA,0%
same,plant response,[2]; POSTEMERGENCE 0125 GM/HA,20%
same,plant response,[2]; POSTEMERGENCE 0250 GM/HA,20%
same,plant response,[2]; POSTEMERGENCE 0500 GM/HA,30%
same,plant response,[2]; PREEMERGENCE 0500 GM/HA,40%
same,plant response,[3]; POSTEMERGENCE 0064 GM/HA,0%
same,plant response,[3]; POSTEMERGENCE 0125 GM/HA,20%
same,plant response,[3]; POSTEMERGENCE 0250 GM/HA,40%
same,plant response,[3]; POSTEMERGENCE 0500 GM/HA,60%
same,plant response,[3]; PREEMERGENCE 0500 GM/HA,100%
same,plant response,[4]; POSTEMERGENCE 0064 GM/HA,20%
same,plant response,[4]; POSTEMERGENCE 0125 GM/HA,20%
same,plant response,[4]; POSTEMERGENCE 0250 GM/HA,80%
same,plant response,[4]; POSTEMERGENCE 0500 GM/HA,100%
same,plant response,[4]; PREEMERGENCE 0500 GM/HA,100%
same,plant response,[5]; POSTEMERGENCE 0064 GM/HA,0%
same,plant response,[5]; POSTEMERGENCE 0125 GM/HA,30%
same,plant response,[5]; POSTEMERGENCE 0250 GM/HA,70%
same,plant response,[5]; POSTEMERGENCE 0500 GM/HA,90%
same,plant response,[5]; PREEMERGENCE 0500 GM/HA,100%
same,plant response,[6]; POSTEMERGENCE 0064 GM/HA,20%
same,plant response,[6]; POSTEMERGENCE 0125 GM/HA,30%
same,plant response,[6]; POSTEMERGENCE 0250 GM/HA,40%
same,plant response,[6]; POSTEMERGENCE 0500 GM/HA,60%
same,plant response,[6]; PREEMERGENCE 0500 GM/HA,100%
same,plant response,[7]; POSTEMERGENCE 0064 GM/HA,0%
same,plant response,[7]; POSTEMERGENCE 0125 GM/HA,20%
same,plant response,[7]; POSTEMERGENCE 0250 GM/HA,20%
same,plant response,[7]; POSTEMERGENCE 0500 GM/HA,70%
same,plant response,[7]; PREEMERGENCE 0500 GM/HA,100%
same,plant response,[8]; POSTEMERGENCE 0064 GM/HA,0%
same,plant response,[8]; POSTEMERGENCE 0125 GM/HA,10%
same,plant response,[8]; POSTEMERGENCE 0250 GM/HA,30%
same,plant response,[8]; POSTEMERGENCE 0500 GM/HA,50%
same,plant response,[8]; PREEMERGENCE 0500 GM/HA,80%
"C=C(c1ccccc1)C(O)(Cn1cncn1)c1ccc(Cl)cc1 (stereo not shown) [Example 51, 2-(4-Chlorophenyl)-3-phenyl-1-(1H-1,2,4-triazol-1-yl)-3-buten-2-ol]",plant response,[1]; POSTEMERGENCE 0064 GM/HA,0%
same,plant response,[1]; POSTEMERGENCE 0125 GM/HA,20%
same,plant response,[1]; POSTEMERGENCE 0250 GM/HA,20%
same,plant response,[1]; POSTEMERGENCE 0500 GM/HA,0%
same,plant response,[1]; PREEMERGENCE 0500 GM/HA,0%
same,plant response,[2]; POSTEMERGENCE 0064 GM/HA,0%
same,plant response,[2]; POSTEMERGENCE 0125 GM/HA,0%
same,plant response,[2]; POSTEMERGENCE 0250 GM/HA,0%
same,plant response,[2]; POSTEMERGENCE 0500 GM/HA,20%
same,plant response,[2]; PREEMERGENCE 0500 GM/HA,0%
same,plant response,[3]; POSTEMERGENCE 0064 GM/HA,0%
same,plant response,[3]; POSTEMERGENCE 0125 GM/HA,0%
same,plant response,[3]; POSTEMERGENCE 0250 GM/HA,20%
same,plant response,[3]; POSTEMERGENCE 0500 GM/HA,50%
same,plant response,[3]; PREEMERGENCE 0500 GM/HA,20%
same,plant response,[4]; POSTEMERGENCE 0064 GM/HA,0%
same,plant response,[4]; POSTEMERGENCE 0125 GM/HA,0%
same,plant response,[4]; POSTEMERGENCE 0250 GM/HA,0%
same,plant response,[4]; POSTEMERGENCE 0500 GM/HA,50%
same,plant response,[4]; PREEMERGENCE 0500 GM/HA,0%
same,plant response,[5]; POSTEMERGENCE 0064 GM/HA,0%
same,plant response,[5]; POSTEMERGENCE 0125 GM/HA,0%
same,plant response,[5]; POSTEMERGENCE 0250 GM/HA,0%
same,plant response,[5]; POSTEMERGENCE 0500 GM/HA,0%
same,plant response,[5]; PREEMERGENCE 0500 GM/HA,70%
same,plant response,[6]; POSTEMERGENCE 0064 GM/HA,0%
same,plant response,[6]; POSTEMERGENCE 0125 GM/HA,0%
same,plant response,[6]; POSTEMERGENCE 0250 GM/HA,0%
same,plant response,[6]; POSTEMERGENCE 0500 GM/HA,0%
same,plant response,[6]; PREEMERGENCE 0500 GM/HA,30%
same,plant response,[7]; POSTEMERGENCE 0064 GM/HA,0%
same,plant response,[7]; POSTEMERGENCE 0125 GM/HA,0%
same,plant response,[7]; POSTEMERGENCE 0250 GM/HA,20%
same,plant response,[7]; POSTEMERGENCE 0500 GM/HA,40%
same,plant response,[7]; PREEMERGENCE 0500 GM/HA,100%
same,plant response,[8]; POSTEMERGENCE 0064 GM/HA,0%
same,plant response,[8]; POSTEMERGENCE 0125 GM/HA,0%
same,plant response,[8]; POSTEMERGENCE 0250 GM/HA,0%
same,plant response,[8]; POSTEMERGENCE 0500 GM/HA,0%
same,plant response,[8]; PREEMERGENCE 0500 GM/HA,0%
C=C(c1ccc(Cl)cc1Cl)C(O)(Cn1cncn1)c1ccccc1F (stereo not shown) [Example 107],plant response,[1]; PREEMERGENCE 0250 GM/HA,0%
same,plant response,[2]; PREEMERGENCE 0250 GM/HA,30%
same,plant response,[3]; PREEMERGENCE 0250 GM/HA,20%
same,plant response,[4]; PREEMERGENCE 0250 GM/HA,0%
same,plant response,[5]; PREEMERGENCE 0250 GM/HA,0%
same,plant response,[6]; PREEMERGENCE 0250 GM/HA,80%
same,plant response,[7]; PREEMERGENCE 0250 GM/HA,90%
same,plant response,[8]; PREEMERGENCE 0250 GM/HA,30%
